According to US6441195B1, “Substituted sulphonylamino(thio) carbonyl compounds” (Bayer Aktiengesellschaft, priority 1995, dated 2002):

Experiments:
Type in all cases: in vivo
Matricaria = test: Pre-emergence test/Greenhouse, Matricaria; details: after three weeks
Procedure: (§1) To produce a suitable preparation of the active compound, 1 part by weight of active compound is mixed with the stated amount of solvent, the stated amount of emulsifier is added and the concentrate is diluted with water to the desired concentration.
(§2) Seeds of the test plants are sown in normal soil. After about 24 hours, the soil is watered with the preparation of active compound. Advantageously, the amount of water per unit area is kept constant. The active compound concentration in the preparation is not important, only the active compound appliation rate per unit area matters.
(§3) After three weeks, the degree of damage to the plants is rated in % damage in comparison to the development of the untreated control.
(§4) 0%=no action (like untreated control)

Soya beans = test: Pre-emergence test/Greenhouse, Soya beans; details: in vivo
Procedure: as §1, §2, §3, §4

weeds = test: Pre-emergence test (greenhouse), activity against weeds; details: in words
Procedure: Solvent: 5 parts by weight of acetone
Emulsifier: 1 part by weight of alkylaryl polyglycol ether
as §1, §2, §3, §4

Poa = test: Pre-emergence test/Greenhouse, Poa; details: after three weeks
Procedure: as §1, §2, §3, §4

Solanum = test: Pre-emergence test/Greenhouse, Solanum; details: after three weeks
Procedure: as §1, §2, §3, §4

Sorghum = test: Pre-emergence test/Greenhouse, Sorghum; details: after three weeks
Procedure: as §1, §2, §3, §4

Ambrosia = test: Pre-emergence test/Greenhouse, Ambrosia; details: after three weeks
Procedure: as §1, §2, §3, §4

Lolium = test: Pre-emergence test/Greenhouse, Lolium; details: after three weeks
Procedure: as §1, §2, §3, §4

Maize = test: Pre-emergence test/Greenhouse, Maize; details: in vivo
Procedure: as §1, §2, §3, §4

SMILES	degree of damage to the plants (% damage vs untreated control), Matricaria (Matricaria; 125 g of ai./ha) [%]	degree of damage to the plants (% damage vs untreated control), Soya beans (Soya beans) [%]	activity against weeds (weeds)	degree of damage to the plants (% damage vs untreated control), Solanum (Solanum; 125 g of ai./ha) [%]	degree of damage to the plants (% damage vs untreated control), Sorghum (Sorghum; 125 g of ai./ha) [%]	degree of damage to the plants (% damage vs untreated control), Lolium (Lolium; 125 g of ai./ha) [%]	degree of damage to the plants (% damage vs untreated control), Matricaria (Matricaria; 60 g of ai./ha) [%]	degree of damage to the plants (% damage vs untreated control), Poa (Poa; 60 g of ai./ha) [%]	degree of damage to the plants (% damage vs untreated control), Solanum (Solanum; 60 g of ai./ha) [%]	degree of damage to the plants (% damage vs untreated control), Ambrosia (Ambrosia; 60 g of ai./ha) [%]	degree of damage to the plants (% damage vs untreated control), Lolium (Lolium; 60 g of ai./ha) [%]	degree of damage to the plants (% damage vs untreated control), Maize (Maize) [%]	further results
COC(=O)c1cccc(C)c1S(=O)(=O)NC(=O)n1nc(SCCF)n(C)c1=O [Example 152]	80	20	very strong activity against weeds	95	95	95	–	–	–	–	–	–	degree of damage to the plants (% damage vs untreated control), Poa (Poa; 125 g of ai./ha): 95%; degree of damage to the plants (% damage vs untreated control), Ambrosia (Ambrosia; 125 g of ai./ha): 95%
CCOc1nn(C(=O)NS(=O)(=O)c2c(C)cccc2C(=O)OC(C)C)c(=O)n1CC [Example 43]	–	10	very strong activity against weeds	–	–	–	95	95	95	95	95	–	degree of damage to the plants (% damage vs untreated control), Sorghum (Sorghum; 60 g of ai./ha): 80%
COC(=O)c1cccc(OC)c1S(=O)(=O)NC(=O)n1nc(OC(C)C)n(C2CC2)c1=O [Example 135]	90	40	very strong activity against weeds	95	90	95	–	–	–	–	–	–	degree of damage to the plants (% damage vs untreated control), Poa (Poa; 125 g of ai./ha): 95%; degree of damage to the plants (% damage vs untreated control), Ambrosia (Ambrosia; 125 g of ai./ha): 90%
Cc1csc(C(=O)OC(C)C)c1S(=O)(=O)NC(=O)n1nc(OC(C)C)n(C)c1=O [Example 84]	95	30	very strong activity against weeds	100	90	95	–	–	–	–	–	5	–
CCCOc1nn(C(=O)NS(=O)(=O)c2c(C)cccc2C(=O)OC(C)C)c(=O)n1C [Example 17]	–	0	very strong activity against weeds	–	–	–	–	–	–	–	–	–	degree of damage to the plants (% damage vs untreated control), Matricaria (Matricaria; 30 g of ai./ha): 95%; degree of damage to the plants (% damage vs untreated control), Poa (Poa; 30 g of ai./ha): 95%; degree of damage to the plants (% damage vs untreated control), Solanum (Solanum; 30 g of ai./ha): 95%; degree of damage to the plants (% damage vs untreated control), Sorghum (Sorghum; 30 g of ai./ha): 60%; degree of damage to the plants (% damage vs untreated control), Ambrosia (Ambrosia; 30 g of ai./ha): 95%; degree of damage to the plants (% damage vs untreated control), Lolium (Lolium; 30 g of ai./ha): 80%
CCOc1nn(C(=O)NS(=O)(=O)c2c(C)csc2C(=O)OC(C)C)c(=O)n1CC [Example 86]	100	40	very strong activity against weeds	95	70	80	–	–	–	–	–	10	–
CCOc1nn(C(=O)NS(=O)(=O)c2c(C)csc2C(=O)OC(C)C)c(=O)n1C [Example 76]	–	30	very strong activity against weeds	–	–	–	100	–	95	–	95	0	degree of damage to the plants (% damage vs untreated control), Sorghum (Sorghum; 60 g of ai./ha): 95%
COC(=O)c1scc(C)c1S(=O)(=O)NC(=O)n1nc(OC(C)C)n(C)c1=O [Example 40]	–	30	very strong activity against weeds	–	–	–	95	95	95	95	90	10	–
CCCc1nn(C(=O)NS(=O)(=O)c2c(C)csc2C(=O)OC)c(=O)n1OC [Example 39]	–	20	very strong activity against weeds	–	–	–	70	90	90	95	95	0	–
COC(=O)c1cccc(C)c1S(=O)(=O)NC(=O)n1nc(OCC2CC2)n(C)c1=O [Example 167]	–	30	very strong activity against weeds	–	–	–	95	95	90	90	80	–	degree of damage to the plants (% damage vs untreated control), Sorghum (Sorghum; 60 g of ai./ha): 95%
CCCOC(=O)c1cccc(C)c1S(=O)(=O)NC(=O)n1nc(SCC)n(C)c1=O [Example 48]	100	20	very strong activity against weeds	95	–	95	–	–	–	–	–	30	degree of damage to the plants (% damage vs untreated control), Poa (Poa; 125 g of ai./ha): 95%; degree of damage to the plants (% damage vs untreated control), Ambrosia (Ambrosia; 125 g of ai./ha): 95%
CCn1c(OC)nn(C(=O)NS(=O)(=O)c2c(C)cccc2C(=O)OC(C)C)c1=O [Example 19]	–	0	very strong activity against weeds	–	–	–	95	95	90	95	95	0	–
CCOn1c(SC)nn(C(=O)NS(=O)(=O)c2c(C)cccc2C(=O)OC)c1=O [Example 146]	–	10	very strong activity against weeds	–	–	–	80	90	90	80	80	0	–
